Reference: the NIST ThermoML archive (doi:10.1016/j.jct.2013.09.017)

Assay: xn = mol fraction of the nth substance listed
Conditions: 101 kPa, Liquid; for viscosity: Capillary tube (Ostwald / Ubbelohde) method; for mass density: Vibrating tube method

CCCCCCCCN(CCCCCCCC)CCCCCCCC [trioctylamine] + CCCCCCCCC
Conditions | mass density, 283.15 K [kg/m3] | mass density, 293.15 K [kg/m3] | mass density, 303.15 K [kg/m3] | viscosity, 283.15 K [mPa·s] | viscosity, 293.15 K [mPa·s] | viscosity, 303.15 K [mPa·s]
x1 = 0.1015 | 746.06 | 738.6 | 731.08 | 1.277 | 1.072 | 0.918
x1 = 0.2014 | 761.56 | 754.29 | 746.99 | 1.932 | 1.588 | 1.326
x1 = 0.3016 | 773.78 | 766.67 | 759.52 | 2.701 | 2.163 | 1.766
x1 = 0.3988 | 783.37 | 776.38 | 769.35 | 3.656 | 2.862 | 2.273
x1 = 0.4969 | 791.34 | 784.45 | 777.53 | 4.815 | 3.685 | 2.881
x1 = 0.5956 | 798.14 | 791.33 | 784.51 | 6.134 | 4.579 | 3.514
x1 = 0.6953 | 803.91 | 797.16 | 790.4 | 7.725 | 5.664 | 4.267
x1 = 0.7943 | 808.76 | 802.07 | 795.37 | 9.548 | 6.874 | 5.069
x1 = 0.9025 | 813.41 | 806.77 | 800.13 | 11.89 | 8.466 | 6.161
x1 = 1 | 817.08 | 810.48 | 803.88 | 14.25 | 9.957 | 7.114

CCCCCCCCN(CCCCCCCC)CCCCCCCC [trioctylamine] + CCCCCCCCCC
Conditions | mass density, 283.15 K [kg/m3] | mass density, 293.15 K [kg/m3] | mass density, 303.15 K [kg/m3] | viscosity, 283.15 K [mPa·s] | viscosity, 293.15 K [mPa·s] | viscosity, 303.15 K [mPa·s]
x1 = 0.1113 | 755.32 | 748.01 | 740.66 | 1.64 | 1.371 | 1.152
x1 = 0.1979 | 766.34 | 759.17 | 751.96 | 2.266 | 1.837 | 1.514
x1 = 0.297 | 776.77 | 769.72 | 762.64 | 3.092 | 2.448 | 1.976
x1 = 0.3974 | 785.51 | 778.56 | 771.59 | 4.092 | 3.172 | 2.515
x1 = 0.5044 | 793.3 | 786.44 | 779.56 | 5.402 | 4.086 | 3.174
x1 = 0.5913 | 798.73 | 791.93 | 785.11 | 6.558 | 4.896 | 3.743
x1 = 0.6888 | 804.03 | 797.29 | 790.53 | 8.006 | 5.85 | 4.389
x1 = 0.7962 | 809.11 | 802.43 | 795.73 | 9.857 | 7.086 | 5.238
x1 = 0.8991 | 813.37 | 806.73 | 800.09 | 11.97 | 8.401 | 6.09
x1 = 1 | 817.08 | 810.48 | 803.88 | 14.25 | 9.957 | 7.114
